Tests used:
Format in all cases: biochemical
MMP-1 = target: T1, MMP-1 (Homo sapiens, UniProt P03956); test: In Vitro Collagenase Assay (MMP-1); conditions: human recombinant fibroblast collagenase
T1 construct: human recombinant fibroblast collagenase (truncated, mw=18,828)
T1 sequence (P03956 100-269 limits assumed): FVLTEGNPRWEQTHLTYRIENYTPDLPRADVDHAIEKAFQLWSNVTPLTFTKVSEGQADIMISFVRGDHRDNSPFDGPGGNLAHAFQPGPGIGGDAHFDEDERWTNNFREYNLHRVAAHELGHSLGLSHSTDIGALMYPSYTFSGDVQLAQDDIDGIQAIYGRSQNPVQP
Text: In Vitro Collagenase Assay
This assay was based on the cleavage of a peptide substrate ((Dnp-Pro-Cha-Gly-Cys(Me)-His-Ala-Lys(NMa)-NH2), available from Peptide International, Inc.) by collagenase releasing the fluorescent NMa group which was quantitated on the fluorometer as disclosed in Bickett et al., "A High Throughput Fluorogenic Substrate for Interstitial Collagenase (MMP-1) and Gelatinase (MMP-9)", Anal. Biochem., 212:58-64, (1993). Dnp quenches the NMa fluorescence in the intact substrate.
The assay was run in HCBC assay buffer (50 mM HEPES, pH 7.0, 5 mM Ca^+2, 0.02% Brij, 0.5% Cysteine), with human recombinant fibroblast collagenase (truncated, mw=18,828. from Wyeth-Ayerst Research, Radnor, Pa.). The substrate was dissolved in methanol and stored frozen in 1 mM aliquots. Collagenase was stored frozen in buffer in 25 μM aliquots. In conducting the assay, the substrate was dissolved in HCBC buffer to a final concentration of 10 μM and collagenase to a final concentration of 5 nM. The compounds being examined were dissolved in methanol, DMSO, or HCBC. The methanol and DMSO were diluted in HCBC to <1.0%. The compounds were added to a 96 well plate containing enzyme and the reaction was started by the addition of substrate.
(§1) The reaction was read (excitation 340 nm, emission 444 nm) for 10 min. and the increase in fluorescence over time was plotted as a linear line. The slope of the line was calculated representing the reaction rate. The linearity of the reaction rate was confirmed (r^2 >0.85). The mean (x±sem) of the control rate was calculated and compared for statistical significance (p<0.05) with drug-treated rates using Dunnett's multiple comparison test.

MMP-9 = MMP-9 (Homo sapiens, UniProt P14780); test: In Vitro Gelatinase Assay (MMP-9); conditions: human neutrophil gelatinase B
Sequence of MMP-9 (P14780 94-707): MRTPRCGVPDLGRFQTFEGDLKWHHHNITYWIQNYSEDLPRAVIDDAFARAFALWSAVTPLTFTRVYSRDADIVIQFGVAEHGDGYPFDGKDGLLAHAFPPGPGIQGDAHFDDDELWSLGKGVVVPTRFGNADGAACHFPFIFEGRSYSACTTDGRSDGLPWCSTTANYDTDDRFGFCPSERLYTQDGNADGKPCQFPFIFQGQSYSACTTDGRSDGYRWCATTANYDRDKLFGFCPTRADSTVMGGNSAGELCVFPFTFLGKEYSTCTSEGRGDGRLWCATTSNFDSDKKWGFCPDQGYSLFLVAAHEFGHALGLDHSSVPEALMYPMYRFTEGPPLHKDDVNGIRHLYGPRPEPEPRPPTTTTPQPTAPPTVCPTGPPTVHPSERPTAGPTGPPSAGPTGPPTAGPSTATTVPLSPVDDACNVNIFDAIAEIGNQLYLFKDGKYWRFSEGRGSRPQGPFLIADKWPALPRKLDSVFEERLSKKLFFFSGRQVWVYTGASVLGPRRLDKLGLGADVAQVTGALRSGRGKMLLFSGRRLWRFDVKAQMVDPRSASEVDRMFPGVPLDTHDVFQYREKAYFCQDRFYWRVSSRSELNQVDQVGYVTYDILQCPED
Procedure: The enzyme activity is measured by the rate of the color increase. The thiopeptide substrate was made up fresh as a 20 mM stock in 100% DMSO and the DTNB was dissolved in 100% DMSO as a 100 mM stock and stored in the dark at room temperature. The substrate and the DTNB were diluted together to 1 mM with substrate buffer (50 mM HEPES, pH 7.5, 5 mM CaCl2) before use. […] The assay buffer, enzyme. […] The increase in OD405 was plotted and the slope of the line was calculated. The slope represents the reaction rate.

MMP-13 = MMP-13 (Homo sapiens, UniProt P45452); test: MMP-13 inhibition (Table 1); conditions: read-out: IC50 (nM) MMP-13
TACE = target: T2, TACE (Homo sapiens, UniProt P78536); test: Procedure for Measuring TACE Inhibition
T2 construct: purchased Immunex
T2 sequence (P78536 215-824): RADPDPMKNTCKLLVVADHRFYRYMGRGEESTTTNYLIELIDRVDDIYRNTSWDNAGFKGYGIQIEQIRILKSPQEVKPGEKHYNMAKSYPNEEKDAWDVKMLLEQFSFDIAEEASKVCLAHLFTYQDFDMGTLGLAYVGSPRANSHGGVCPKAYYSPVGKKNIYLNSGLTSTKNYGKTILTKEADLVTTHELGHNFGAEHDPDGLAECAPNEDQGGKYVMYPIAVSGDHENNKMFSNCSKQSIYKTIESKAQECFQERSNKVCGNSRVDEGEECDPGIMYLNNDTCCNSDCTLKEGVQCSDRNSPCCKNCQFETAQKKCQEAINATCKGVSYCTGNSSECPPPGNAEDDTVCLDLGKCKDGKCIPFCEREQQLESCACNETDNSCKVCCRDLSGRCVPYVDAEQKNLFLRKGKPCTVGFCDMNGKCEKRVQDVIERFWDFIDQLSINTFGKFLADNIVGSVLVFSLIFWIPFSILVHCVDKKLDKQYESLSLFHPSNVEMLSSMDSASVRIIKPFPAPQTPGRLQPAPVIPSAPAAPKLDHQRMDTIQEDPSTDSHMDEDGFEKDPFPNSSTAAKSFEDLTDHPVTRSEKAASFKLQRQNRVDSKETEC
Procedure: Procedure for Measuring TACE Inhibition
The plates were incubated for 10 minutes at room temperature. The reaction was initiated by addition of a fluorescent peptidyl substrate (final concentration 100 μM) to each well with shaking on a shaker for 5 sec.
as §1, with “420” for “444”, “and this represents” for “representing”, “The linearity of the reaction rate was confirmed (r^2 >0.85).” left out

IC50 (MMP-1) [nM]	IC50 (MMP-9) [nM]	IC50 (MMP-13) [nM]	IC50 (TACE) [nM]	SMILES
75.5	3	2.6	–	COc1ccc(S(=O)(=O)N2Cc3ccccc3N(C(=O)c3ccc(Cl)cc3Cl)CC2C(=O)NO)cc1 (stereo not shown) [Example 31, 1-(2,4-Dichlorobenzoyl)-4-(4-methoxybenzenesulfonyl)-2,3,4,5-tetrahydro-1H-[1,4]benzodiazepine-3-carboxylic acid, Hydroxyamide]
130	5.6	3.1	446 ± 48	COc1ccc(S(=O)(=O)N2Cc3cc(C)ccc3N(C(=O)c3ccccc3-n3cccn3)CC2C(=O)NO)cc1 (stereo not shown) [Example 63]
65.5	4.4	2.9	154	COc1ccc(S(=O)(=O)N2Cc3ccccc3N(C(=O)COc3ccccc3)CC2C(=O)NO)cc1 (stereo not shown) [Example 58, 4-(4-Methoxybenzenesulfonyl)-1-(phenoxyacetyl)-2,3,4,5-tetrahydro-1H-[1,4]benzodiazepine-3-carboxylic acid, Hydroxamide]
34.1	1.34	1.19	95.2	COCC(=O)N1CC(C(=O)NO)N(S(=O)(=O)c2ccc(OC)cc2)Cc2ccccc21 (stereo not shown) [Example 9, 1-Methoxyacetyl-4-(4-methoxybenzenesulfonyl)-2,3,4,5-tetrahydro-1H-[1,4]benzodiazepine-3-carboxylic acid, Hydroxyamide]
52.7	0.7	0.4	199	COc1ccc(S(=O)(=O)N2Cc3ccccc3N(C(=O)c3ccc(-c4ccccc4)cc3)CC2C(=O)NO)cc1 (stereo not shown) [Example 15, 1-(4-Biphenylcarbonyl)-4-(4-methoxybenzenesulfonyl)-2,3,4,5-tetrahydro-1H-[1,4]benzodiazepine-3-carboxylic acid, Hydroxyamide]
1320	50.8	73.9	551 ± 29	COc1ccc(S(=O)(=O)N2Cc3ccccc3N(Cc3ccccc3)CC2C(=O)NO)cc1 (stereo not shown) [Example 67, 1-Benzyl-4-(4-methoxybenzenesulfonyl)-2,3,4,5-tetrahydro-1H-[1,4]benzodiazepine-3-carboxylic acid, Hydroxylamide]
96.2	5.1	3.7	352	COc1ccc(S(=O)(=O)N2Cc3ccccc3N(C(=O)c3cccc(C(F)(F)F)c3)CC2C(=O)NO)cc1 (stereo not shown) [Example 1, 4-(4-Methoxybenzenesulfonyl)-1-(3-trifluoromethylbenzoyl)-2,3,4,5-tetrahydro-1H-[1,4]-benzodiazepine-3-carboxylic acid, Hydroxyamide]
183	7	2.8	91 ± 10	CCCS(=O)(=O)N1CC(C(=O)NO)N(S(=O)(=O)c2ccc(OC)cc2)Cc2ccccc21 (stereo not shown) [Example 10, 4-(4-Methoxybenzenesulfonyl)-1-(propane-1-sulfonyl)-2,3,4,5-tetrahydro-1H-[1,4]benzodiazepine-3-carboxylic acid, Hydroxyamide]
156	7.9	3	104 ± 8	COc1ccc(S(=O)(=O)N2Cc3ccccc3N(S(C)(=O)=O)CC2C(=O)NO)cc1 (stereo not shown) [Example 3, 1-Methanesulfonyl-4-(4-methoxybenzenesulfonyl)-2,3,4,5-tetrahydro-1H-[1,4]benzodiazepine-3-carboxylic acid, Hydroxyamide]
–	0.56	0.4	95 ± 10	COc1ccc(S(=O)(=O)N2Cc3ccccc3N(C(=O)c3ccccc3)CC2C(=O)NO)cc1 (stereo not shown) [Example 5, 1-Benzoyl-4-(4-methoxybenzenesulfonyl)-2,3,4,5-tetrahydro-1H-[1,4]benzodiazepine-3-carboxylic acid, Hydroxyamide]
16.6	1.4	1.2	28.5	COc1ccc(S(=O)(=O)N2Cc3ccccc3N(C(=O)c3ccco3)CC2C(=O)NO)cc1 (stereo not shown) [Example 40, 1-(2-Furanylcarbonyl)-4-(4-methoxybenzenesulfonyl)-2,3,4,5-tetrahydro-1H-[1,4]benzodiazepine-3-carboxylic acid, Hydroxyamide]
83.4	3.4	2.6	148	COc1ccc(S(=O)(=O)N2Cc3ccccc3N(C(=O)c3ccc(-n4ccc(C)n4)cc3Cl)CC2C(=O)NO)cc1 (stereo not shown) [Example 66, 4-(4-Methoxybenzenesulfonyl)-1-[2-chloro-4-(3-methyl-1-pyrazolyl)phenylcarbonyl}-2,3,4,5-tetrahydro-1H-[1,4]benzodiazepine-3-carboxylic acid, Hydroxyamide]
224	12.2	4.3	101 ± 3	COc1ccc(S(=O)(=O)N2CC(C(=O)NO)N(S(=O)(=O)c3ccc(OC)cc3)Cc3ccccc32)cc1 (stereo not shown) [Example 4, 1,4-Bis-(4-Methoxybenzenesulfonyl)-2,3,4,5-tetrahydro-1H-[1,4]benzodiazepine-3-carboxylic acid, Hydroxyamide]
542	12.6	3.7	–	COc1ccc(S(=O)(=O)N2Cc3ccccc3N(C(=O)c3ccccc3-c3ccccc3)CC2C(=O)NO)cc1 (stereo not shown) [Example 14, 1-([1,1'-Biphenyl]-2-carbonyl)-4-(4-methoxybenzenesulfonyl)-2,3,4,5-tetrahydro-1H-[1,4]benzodiazepine-3-carboxylic acid, Hydroxyamide]
523	17.9	–	207	COc1ccc(S(=O)(=O)N2Cc3ccccc3N(C(=O)CCc3ccccc3)CC2C(=O)NO)cc1 (stereo not shown) [Example 12, 4-(4-Methoxybenzenesulfonyl)-1-(3-phenylpropionyl)-2,3,4,5-tetrahydro-1H-[1,4]benzodiazepine-3-carboxylic acid, Hydroxyamide]
171	4	–	68.5	COc1ccc(S(=O)(=O)N2Cc3ccccc3N(C(=O)C3CC3)CC2C(=O)NO)cc1 (stereo not shown) [Example 55, 1-(Cyclopropylcarbonyl)-4-(4-methoxybenzenesulfonyl)-2,3,4,5-tetrahydro-1H-[1,4]benzodiazepine-3-carboxylic acid, Hydroxyamide]
465	12.7	–	318	COc1ccc(S(=O)(=O)N2Cc3ccccc3N(C(=O)C3CCCCC3)CC2C(=O)NO)cc1 (stereo not shown) [Example 57, 1-(Cyclohexylcarbonyl)-4-(4-methoxybenzenesufonyl)-2,3,4,5-tetrahydro-1H-[1,4]benzodiazepine-3-carboxylic acid, Hydroxyamide]
19.7	–	1.1	–	COc1ccc(S(=O)(=O)N2Cc3ccccc3N(C(=O)c3cccs3)CC2C(=O)NO)cc1 (stereo not shown) [Example 8, 4-(4-Methoxybenzenesulfonyl)-1-(2-thienylcarbonyl)-2,3,4,5-tetrahydro-1H-[1,4]benzodiazepine-3-carboxylic acid, Hydroxyamide]
–	14.1	5.1	391	COc1ccc(S(=O)(=O)N2Cc3ccccc3N(S(=O)(=O)c3ccc(C)cc3)CC2C(=O)NO)cc1 (stereo not shown) [Example 2, 4-(4-Metboxybenzenesulfonyl)-1-(4-methylphenylsulfonyl)-2,3,4,5-tetrahydro-1H-[1,4]benzodiazepine-3-carboxylic acid, Hydroxyamide]
1000	100	100	–	COCCN1CC(C(=O)NO)N(S(=O)(=O)c2ccc(OC)cc2)Cc2ccccc21 (stereo not shown) [Example 62, 4-(4-Methoxybenzenesulfonyl)-1-(2-methoxyetbyl)-2,3,4,5-tetrahydro-1H-[1,4]benzodiazepine-3-carboxylic acid, Hydroxyamide]

— US6071903A, “2,3,4,5-tetrahydro-1H-[1,4]-benzodiazepine-3-hydroxyamic acids” (American Cyanamid Company, priority 1999, dated 2000)
